Patent US7129218B2, “Use of rhamnolipids in wound healing, treatment and prevention of gum disease and periodontal regeneration” (Paradigm Biomedical, Inc., priority 1999, dated 2006)

Legend:
[1] = tested on: neonatal human keratinocyte cells; test: Caspase detection in neonatal human keratinocyte cells in KGM (serum free) medium; assay type: cell-based
Method: The procedure for caspase detection in neonatal human keratinocyte cells in KGM* (serum free) medium treated With BAC-3 using fluorescence spectroscopy
The same procedure as described for fibroblasts except different growth conditions were used (NHK97-45 passage #3 cell line was used). Neonatal human keratinocytes were without the presence of serum (KGM medium). Prior to treatment with BAC-3, passage #3 cells were grown in KGM medium for 7 days with one medium change (until 80% confluent). For preparing positive apoptosis control, plates were irradiated with UVB light for 66 seconds (792 J/m^2).
Cells, at 80% confluence, were administered BAC-3 in KGM at 50 μg/ml, 10 μg/ml, 1 μg/ml and 0.5 μg/ml concentrations. Medium was replaced every two days over the period of 6 days. On day 3, positive apoptosis control was established by irradiating cells with 792 J/m^2 UVB light and incubating them with 1 μg/ml FAS antibody. BAC-3 treated and control cells were harvested and cell densities were adjusted to 1×10^6 cells per ml with FM. 300 μl cell aliquots were labeled with FAM-VAD-FMK, fluorescent-tagged, irreversible caspase inhibitor. Unlabelled inhibitor was washed away with buffer and 100 μl aliquots were read at 485 nm excitation and 535 nm emission with fluorescence detector. Error bars indicate standard deviations.

[2] = tested on: neonatal human keratinocyte cells; test: Caspase detection in neonatal human keratinocyte cells in GM medium (with serum); assay type: cell-based
Method: The procedure for caspase detection in neonatal human keratinocyte cells in GM* medium (with serum) treated with BAC-3 using fluorescence spectroscopy
The same procedure as described for keratinocyte cells in KGM, but with presence of serum (GM). Passage #3 cells were grown in KGM medium for 7 days with one medium change. Plates were irradiated with UVB light for 66 seconds (792 J/m^2)
Cells, at 80% confluence, were administered BAC-3 in GM at 100 μg/ml, 50 μg/ml, 10 μg/ml and 1 μg/ml concentrations. Medium was replaced every two days over the period of 6 days. On day 3, positive apoptosis control was established by irradiating cells with 792 J/m^2 UVB light and incubating them with 1 μg/ml FAS antibody. BAC-3 treated and control cells were harvested and cell densities were adjusted to 1×10^6 cells per ml with FM. 300 μl cell aliquots were labeled with FAM-VAD-FMK, fluorescent-tagged, irreversible caspase inhibitor. Unlabelled inhibitor was washed away with buffer and 100 μl aliquots were read at 485 nm excitation and 535 nm emission with fluorescence detector. Error bars indicate standard deviations.

[3] = tested on: neonatal human fibroblast cells; test: Caspase detection in neonatal human fibroblast cells in FM, fluorescence spectroscopy; assay type: cell-based; details: fibroblasts in FM
Excerpt: The procedure for caspase detection in neonatal human fibroblast cells in fibroblast growth medium FM* treated with BAC-3 using fluorescence spectroscopy.
Note: CaspaTag Fluorescein Caspase Activity Kit (Intergen Company) was used to detect active caspase enzymes with fluorescent spectroscopy. All solutions, except cell medium and PBS, were included with the kit.
12 vials of neonatal human fibroblasts, NHF97-001 passage #3 (prepared as described in section 2.1.a), were retrieved from a liquid N2 chamber. Closed vials were quickly defrosted in a small amount of 37° C., 75% ethanol. […]
Di-rhamnolipid BAC-3 was weighed on the precision balance (Mettler AC100) and dissolved in FM medium to make an aqueous 1 mg/ml di-rhamnolipid BAC-3 stock solution. […] The remaining 9 plates were used as controls: 3 plates for positive apoptosis control (apoptosis induction by UVB+antibody), 3 plates for BAC-3 untreated control and 3 plates for fluorescence control (FAM-VAD-FMK unlabelled cells). […]
On day 6, treatment with BAC-3 was completed and cells were trypsinized and collected into 50 ml centrifuge tubes. Cells were counted using a hemacytometer and a trypan blue exclusion test and densities were adjusted to 1.0×10^6 cells per ml of FM medium. […]

venous ulcer = test: Open wound healing in a patient with incurable venous ulcer; assay type: in vivo, human; details: 1% BAC-3 ointment twice daily during 41 days
Method: The BAC-3 rhamnolipid was tested in the case of open wound healing, in a patient suffering around ten years from incurable venous ulcer. On the left leg, the patient had very thick layers of collagen with fibrotic lesions. […] Moreover, after treatment was finished, not only the collagen, but also the fibrotic lesions had disappeared as well. One year after the treatment, the treated skin lesions on the left leg appear normal, and all skin collagen and fibrotic layers had disappeared.

CCCCCCCC(CC(=O)O)OC(=O)CC(CCCCCCC)OC1OC(C)C(O)C(O)C1OC1OC(C)C(O)C(O)C1O [BAC-3, (α-L-rhamnopyranosyl-(1,2)-α-L-rhamnopyranosyl)-3-hyroxydecanoyl-3-hydroxydecanoic acid]
optimal concentration for inducing apoptosis (caspase activity peak) ([1]; keratinocytes in KGM serum free, 6 days, tested 50, 10, 1 and 0.5 μg/ml): 1 µg/mL
mechanism of cell death at higher concentrations ([1]; keratinocytes in KGM, higher concentrations of BAC-3 (detergent effect)): cell necrosis
optimal concentration for inhibiting apoptosis ([2]; keratinocytes in GM with serum, 6 days, tested 100, 50, 10, 1 and 0.5 μg/ml): 50 µg/mL
effect on apoptosis (caspase enzyme activity) ([2]; keratinocytes in GM, presence of serum): inhibited
optimal concentration for inducing apoptosis (caspase activity peak) ([3]; 6 days, tested 100, 50, 10 and 1 μg/ml): 50 µg/mL
mechanism of cell death at higher concentrations ([3]; higher concentrations of BAC-3 (detergent effect)): cell necrosis
collagen and fibrotic lesions after treatment (venous ulcer; after treatment and one year later): disappeared
patient's condition (venous ulcer; one patient, venous ulcer, left leg): significantly improved
